This is an account of results in patent US8084644B2, “Iminopropene compound and use thereof” (Sumitomo Chemical Company, Limited, priority 2005, dated 2011).

Each structure is given as a SMILES string.

The test system of data set [1] is Haemaphysalis longicornis. Kind of data set: Test Example 11: filter paper bag contact test on ticks. Format: in vivo. As to conditions: 48 h, 0.5 mg test compound on 5 cm×10 cm filter paper, after 2 days. The method, then:
0.5 mg of the test compound was dissolved to […]. Onto one side of filter paper having 5 cm×10 cm, the solution was applied uniformly and then air-dried. Thereafter, the filter paper was folded in half and fixed by paper clips at the side to form bag like shape. Ten Haemaphysalis longicornis was put into the bag, and then the bag was closed with a paper clip. After 2 days, the number of dead insects was examined.

The test system of data set [2] is Spodoptela litura. Kind of data set: Test Example 13: cabbage test on common cutworm. The settings on record: 50 ppm, fourth-instar, after four days. It is filed as in vivo. The protocol: 0.1 ml of the mixture of xylene and N,N-dimethylformamide (xylene:N,N-dimethylformamide=1:1) and 0.04 ml of the mixture of xylene and Sorpol 3005X (TOHO Chemical Industry Co. LTD) (xylene:Sorpol 3005X=1:9) were added to 16 mg of the each test compound. The mixture was diluted with water as that the active ingredient concentration came to prescribed concentration. Furthermore, spreader (Dain: Takeda Pharmaceutical Co. […] The test solution was applied to a cabbage (Brassicae oleracea) in a fifth-leaf stage at a rate 20 ml per pot. After air-drying, ten fourth-instar worm of common cutworm (Spodoptela litura) was placed onto the cabbage, and the cabbage was covered with a cup having holes. After four days, the number of dead worm was examined.

Usually melting point stands for the temperature, or range, at which the solid turns liquid. As a reminder, the mortality is the share of the test organisms that died.

Compound `C(=CN1CCCCC1)C(=Nc1ccccc1)Oc1ccccc1` [(134), Phenyl N-phenyl-3-(piperidino)acrylimidate] came in with a melting point of 127 to 128 °C.
For the compound `Cc1ccc(N=C(C=CSc2ccccc2)Sc2ccccc2)cc1` [(28), Phenyl N-(4-methylphenyl)-3-phenylthiothioacrylimidate], the mortality at 0.5 mg/filter paper in data set [1] was 100%.
The compound `CC(C)(C)SC=CC(=Nc1ccccc1)Oc1ccccc1` [(140), Phenyl 3-(1,1-dimethylethylthio)-N-phenylacrylimidate] displayed a melting point of 134 to 136 °C.
For `Fc1ccc(N=C(C=CSc2ccccc2)Sc2ccc(F)cc2)cc1` [(278), 4-Fluorophenyl N-(4-fluorophenyl)-3-(phenylthio)thioacrylimidate], the mortality at 0.5 mg/filter paper in data set [1] worked out at 100%.
In data set [1], `Fc1ccc(N=C(C=CSc2ccccc2)Sc2ccccc2)cc1` [(264), Phenyl N-(4-fluorophenyl)-3-(phenylthio)thioacrylimidate] showed a mortality at 0.5 mg/filter paper of 100%.
Still for that read-out and setting: to `Cc1ccc(N=C(C=CSc2ccccc2)Oc2ccccc2)cc1` [(54), Phenyl N-(4-methylphenyl)-3-(phenylthio)acrylimidate] belongs 100%.
For the compound `O=S(=O)(C=CC(=Nc1ccccc1)Oc1ccccc1)c1ccccc1` [(99), Phenyl N-phenyl-3-(phenylsulfonyl)acrylimidate], the melting point is 110 to 116 °C.
Consider `Cc1ccc(N=C(C=CSc2ccc(F)cc2)SC2CCCCC2)cc1` [(471), Cyclohexyl 3-(4-fluorophenylthio)-N-(4-methylphenyl)thioacrylimidate], for which the mortality at 0.5 mg/filter paper in data set [1] worked out at 100%.
`Fc1cccc(N=C(C=CSc2ccccc2)Oc2ccccc2)c1` [(51), Phenyl N-(3-fluorophenyl)-3-(phenylthio)acrylimidate] registered a mortality at 0.5 mg/filter paper in data set [1] of 100%.
The same measure, in the same setting: to `CCC(C)OC(C=CSc1ccc(F)cc1)=Nc1ccc(C)cc1` (stereo not shown) [(513), 1-Methylpropyl 3-(4-fluorophenylthio)-N-(4-methylphenyl)acrylimidate] belongs 100%.
Same read-out and setting: to `Cc1ccc(N=C(C=CSc2ccc(F)cc2)SCC(C)C)cc1` [(431), Isobutyl 3-(4-fluorophenylthio)-N-(4-methylphenyl)thioacrylimidate] belongs 100%.
`Clc1ccc(SC(C=CSc2ccccc2)=Nc2ccccc2)cc1` [(2), 4-Chlorophenyl N-phenyl-3-(phenylthio)thioacrylimidate] registered a mortality at 0.5 mg/filter paper in data set [1] of 100%.
Still for that read-out and setting: to `Cc1cccc(SC=CC(=Nc2ccccc2)Oc2ccccc2)c1` [(106), Phenyl 3-(3-methylphenylthio)-N-phenylacrylimidate] belongs 100%; to `Cc1ccc(N=C(C=CSc2ccccc2)SC(C)(C)C)cc1` [(265), 1,1-Dimethylethyl N-(4-methylphenyl)-3-(phenylthio)thioacrylimidate], 100%; to `CC(C)c1ccc(N=C(C=CSc2ccccc2)Oc2ccc(N)cc2)cc1` [(188), 4-Aminophenyl N-[4-(1-methylethyl)phenyl]-3-(phenylthio)acrylimidate], 100%.
Regarding `Cc1ccc(SC=CC(=Nc2ccccc2)Oc2ccccc2)cc1` [(118), Phenyl 3-(4-methylphenylthio)-N-phenylacrylimidate], the mortality at 0.5 mg/filter paper in data set [1] came to 100%.
On to `Cc1ccc(N=C(C=CSc2ccccc2Cl)SCC(C)C)cc1` [(433), Isobutyl 3-(2-chlorophenylthio)-N-(4-methylphenyl)thioacrylimidate], for which the mortality at 0.5 mg/filter paper in data set [1] stood at 100%.
In data set [1], `C=CCSC(C=CSc1ccccc1)=Nc1ccccc1` [(186), 2-Propenyl N-phenyl-3-(phenylthio)thioacrylimidate] gave a mortality at 0.5 mg/filter paper of 100%.
`FC(F)(F)Oc1ccc(N=C(C=COc2ccccc2)Oc2ccccc2)cc1` [(207), Phenyl N-(4-trifluoromethoxyphenyl)-3-phenoxyacrylimidate]: the mortality at 0.5 mg/filter paper in data set [1] amounted to 100%.
`Cc1ccc(N=C(C=CSc2ccccc2)SC2CCCC2)cc1` [(333), Cyclopentyl N-(4-methylphenyl)-3-(phenylthio)thioacrylimidate] yielded a mortality at 0.5 mg/filter paper in data set [1] of 100%.
`CN(C=CC(=Nc1ccccc1)Oc1ccccc1)c1ccccc1` [(132), Phenyl 3-(N′-methyl-N′-phenylamino)-N-phenylacrylimidate] registered a melting point of 130 to 132 °C.
In data set [1], `Cc1ccc(SC=CC(=Nc2ccccc2)Sc2ccccc2)cc1` [(130), Phenyl 3-(4-methylphenylthio)-N-(phenyl)thioacrylimidate] gave a mortality at 0.5 mg/filter paper of 100%. The “index number (mortality)” value in data set [2] is 3 (mortality 80 to 99%).
With `Clc1ccc(N=C(C=COc2ccccc2)Oc2ccccc2)cc1Cl` [(59), Phenyl N-(3,4-dichlorophenyl)-3-(phenoxy)acrylimidate], in data set [1], the mortality at 0.5 mg/filter paper was 100%.
Compound `Cc1cc(C)nc(SC=CC(=Nc2ccccc2)Oc2ccccc2)n1` [(124), Phenyl 3-(4,6-dimethyl-2-pyrimidinylthio)-N-phenylacrylimidate] yielded a melting point of 175 to 178 °C.
In data set [1], `COc1ccc(SC(C=CSc2ccccc2)=Nc2ccccc2)cc1` [(26), 4-Methoxyphenyl N-phenyl-3-(phenylthio)thioacrylimidate] came in with a mortality at 0.5 mg/filter paper of 100%.
Regarding `C(=CC(=Nc1ccccc1)OCc1ccccc1)Sc1ccccc1` [(60), Benzyl N-phenyl-3-(phenylthio)acrylimidate], the melting point was 77 to 81 °C.
Take `C(=CC(=Nc1ccccc1)SC1CCCCC1)Sc1ccccc1` [(187), Cyclohexyl N-phenyl-3-(phenylthio)thioacrylimidate]: the mortality at 0.5 mg/filter paper in data set [1] was found to be 100%.
The same measure, in the same setting: to `C#Cc1ccc(N=C(C=COc2ccccc2)Oc2ccccc2)cc1` [(156), Phenyl N-(4-ethynylphenyl)-3-(phenoxy)acrylimidate] belongs 100%; to `Cc1ccc(N=C(C=CSc2ccc(Cl)cc2)SCC(C)C)cc1` [(435), Isobutyl 3-(4-chlorophenylthio)-N-(4-methylphenyl)thioacrylimidate], 100%.
With `CCCCSC(C=CSc1ccc(F)cc1)=Nc1ccc(C)cc1` [(474), Butyl 3-(4-fluorophenylthio)-N-(4-methylphenyl)thioacrylimidate], the mortality at 0.5 mg/filter paper in data set [1] is 100%.
